The values that follow come from publication PMC9469208 (Journal of Medicinal Chemistry, 2022).

Several values for one entry are separate records, joined by “and”; a condition that tells them apart may be missing. Equal values may be shown once.

By inhibition is commonly meant the drop in the measured response relative to a control, in per cent. By Ki is commonly meant a dissociation constant, usually derived from enzyme kinetics or from competition with a known ligand. Low readings indicate tighter binding, high ones weaker binding.

One assay concerns the target T1, Dopamine transporter (h) (Homo sapiens, UniProt Q01959).
T1 construct: purchased Cerep (Eurofins), Poitiers, France; Promega P450-Glo; in-house COS-7 uptake assays
As to the kind of experiment: Dopamine transporter (h) (antagonist radioligand). The format is binding. The conditions noted are these: read-out: % Inhibition, Dopamine transporter (h). An excerpt: (§1) The general information is listed in the Supporting Information.

The target in a further assay is T2, sst4 (h) (Homo sapiens, UniProt P31391).
T2 construct: purchased Cerep (Eurofins), Poitiers, France; Promega P450-Glo; in-house COS-7 uptake assays
T2 sequence (P31391 whole entry): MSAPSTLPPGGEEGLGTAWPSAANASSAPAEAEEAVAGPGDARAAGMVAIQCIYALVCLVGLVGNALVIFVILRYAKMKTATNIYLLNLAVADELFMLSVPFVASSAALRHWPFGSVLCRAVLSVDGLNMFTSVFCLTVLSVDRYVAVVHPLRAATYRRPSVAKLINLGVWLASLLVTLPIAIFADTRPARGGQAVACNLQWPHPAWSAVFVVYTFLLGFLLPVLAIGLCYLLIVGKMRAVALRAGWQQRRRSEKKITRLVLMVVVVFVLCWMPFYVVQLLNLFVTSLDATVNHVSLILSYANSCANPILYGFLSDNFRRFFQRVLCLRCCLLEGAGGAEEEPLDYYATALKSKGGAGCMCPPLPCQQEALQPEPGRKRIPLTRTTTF
As to the kind of experiment: sst4 (h) functional assay. The format is cell-based.
Description: as §1

In a further assay the target is T3, 5-HT6 (h) (Homo sapiens, UniProt P50406).
T3 construct: purchased Cerep (Eurofins), Poitiers, France; Promega P450-Glo; in-house COS-7 uptake assays
T3 sequence (P50406 whole entry): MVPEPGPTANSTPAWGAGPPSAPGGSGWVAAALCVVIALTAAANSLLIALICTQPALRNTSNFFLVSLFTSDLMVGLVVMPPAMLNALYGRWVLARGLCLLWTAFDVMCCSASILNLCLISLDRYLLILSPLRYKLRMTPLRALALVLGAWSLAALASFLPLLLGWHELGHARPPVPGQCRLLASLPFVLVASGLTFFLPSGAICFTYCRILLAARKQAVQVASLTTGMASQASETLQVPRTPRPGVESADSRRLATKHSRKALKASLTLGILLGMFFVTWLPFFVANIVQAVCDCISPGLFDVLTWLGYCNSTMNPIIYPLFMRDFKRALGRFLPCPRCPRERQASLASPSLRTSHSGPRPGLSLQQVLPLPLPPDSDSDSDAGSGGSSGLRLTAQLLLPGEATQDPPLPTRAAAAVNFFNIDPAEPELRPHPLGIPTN
As to the kind of experiment: 5-HT6 (h) functional assay. The format is cell-based.
Description: as §1

The next assay deals with T4, human SV2A (Homo sapiens, UniProt Q7L0J3).
T4 construct: expressed in transfected cells; host or cells: CHO cells
T4 sequence (Q7L0J3 whole entry): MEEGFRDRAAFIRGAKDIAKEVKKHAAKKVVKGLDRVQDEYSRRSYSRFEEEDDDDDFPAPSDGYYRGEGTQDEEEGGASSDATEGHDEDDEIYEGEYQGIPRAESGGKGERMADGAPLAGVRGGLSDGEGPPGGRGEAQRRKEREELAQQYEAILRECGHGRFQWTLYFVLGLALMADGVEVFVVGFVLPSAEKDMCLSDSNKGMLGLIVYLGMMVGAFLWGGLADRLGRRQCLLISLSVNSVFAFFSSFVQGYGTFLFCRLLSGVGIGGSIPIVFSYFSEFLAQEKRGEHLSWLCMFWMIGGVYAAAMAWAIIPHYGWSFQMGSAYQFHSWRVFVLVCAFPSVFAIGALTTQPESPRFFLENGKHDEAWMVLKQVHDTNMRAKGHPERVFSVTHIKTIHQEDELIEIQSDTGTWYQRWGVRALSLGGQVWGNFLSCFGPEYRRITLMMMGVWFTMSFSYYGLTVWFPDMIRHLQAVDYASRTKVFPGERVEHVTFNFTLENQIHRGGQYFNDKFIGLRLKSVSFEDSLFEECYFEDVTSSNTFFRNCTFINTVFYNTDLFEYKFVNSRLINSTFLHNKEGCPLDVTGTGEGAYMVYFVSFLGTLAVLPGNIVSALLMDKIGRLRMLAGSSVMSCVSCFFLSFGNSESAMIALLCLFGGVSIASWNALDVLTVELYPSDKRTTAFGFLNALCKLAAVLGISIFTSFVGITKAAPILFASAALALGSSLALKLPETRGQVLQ
The experiment in a line: SV2A radioligand binding assay ([3H]brivaracetam). The conditions noted are these: [3H]brivaracetam 3 nM, human SV2A-expressing CHO cell lysate. As to the method: (§2) The competitive radioligand-binding assay was essentially performed as previously described.[96],[97] The SV2A-containing preparations, either cell lysate of human SV2A-expressing CHO cells, or membrane preparations of mouse brain cortex, were incubated with the radioligand [^3H]brivaracetam (3 nM) in the absence or presence of test compound for 4 h. Incubation was performed in 500 μL of Tris-buffer (50 mM Tris–HCl, pH 7.4) containing 2 mM MgCl2 at 4 °C on a rocking shaker. […] The test compounds were dissolved in dimethyl sulfoxide (DMSO) and further diluted in DMSO. The DMSO concentration in all vials was adjusted to 2%. The separation of bound and unbound radioligand was performed via rapid vacuum filtration using GF/C glass fiber filters that had been presoaked in Tris-buffer containing 0.1% polyethyleneimine for 30 min. The filters were rapidly washed three times with about 1 mL of Tris-buffer each and subsequently placed in a drying oven at 50 °C for 90 min. The filters were then transferred to scintillation vials and 2.5 mL of scintillation cocktail (ProSafe FC+, Meridian Biotechnologies Ltd.) was added. After an incubation period of at least 9 h, radioactivity was measured in a scintillation counter. Results were analyzed by GraphPad Prism 7.0.

In a further assay the target is T5, mouse SV2A (Mus musculus, UniProt Q9JIS5).
T5 construct: membrane preparations of mouse brain cortex; from tissue; host or cells: mouse brain cortex membranes
T5 sequence (Q9JIS5 whole entry): as the sequence (Q7L0J3 whole entry) above, with S62A, T71A, E144D, A154T, G440S, S482A, I572V, M634L counted along it
As to the kind of experiment: SV2A radioligand binding assay ([3H]brivaracetam). Particulars: mouse brain cortex membranes. As to the method: as §2

T1 sequence (Q01959 whole entry): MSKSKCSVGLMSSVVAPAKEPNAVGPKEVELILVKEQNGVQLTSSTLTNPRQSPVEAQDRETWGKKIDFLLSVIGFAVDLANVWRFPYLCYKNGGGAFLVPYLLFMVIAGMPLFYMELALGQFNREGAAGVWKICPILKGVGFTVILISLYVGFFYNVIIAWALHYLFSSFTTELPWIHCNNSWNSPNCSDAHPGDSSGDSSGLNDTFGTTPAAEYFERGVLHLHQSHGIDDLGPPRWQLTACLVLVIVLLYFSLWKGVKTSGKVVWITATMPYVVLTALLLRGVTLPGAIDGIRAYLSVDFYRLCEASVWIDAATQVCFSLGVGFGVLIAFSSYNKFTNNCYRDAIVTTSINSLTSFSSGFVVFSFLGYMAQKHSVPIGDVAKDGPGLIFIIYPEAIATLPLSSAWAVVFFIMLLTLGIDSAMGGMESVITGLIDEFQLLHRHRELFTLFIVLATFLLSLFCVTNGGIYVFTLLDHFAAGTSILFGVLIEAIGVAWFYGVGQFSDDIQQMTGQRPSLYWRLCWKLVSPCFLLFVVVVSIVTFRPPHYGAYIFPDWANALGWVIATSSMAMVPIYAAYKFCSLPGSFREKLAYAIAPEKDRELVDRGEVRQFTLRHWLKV

Consider `C[C@H](C(=O)NCc1ccccc1)N1C(=O)CCC1=O` [(R)-7, (R)-N-Benzyl-2-(2,5-dioxopyrrolidin-1-yl)propanamide], for which the inhibition at 100 µM on Dopamine transporter (h) is -2.69%; at 5-HT6 (h) (read-out: % Inhibition, 5-HT6 (h) (Antagonist effect)), -6.42%. Also, the “% Effect, sst4 (h) (Agonist effect)” value at sst4 (h) (10 μM, listed as (R)-7 [(R)-AS-1]) was -7.88% and -7.88 (10 µM) %. Further, at sst4 (h) (50 μM, read-out: % Inhibition, sst4 (h) (Antagonist effect)), the inhibition at 50 µM was 8.25%. At 5-HT6 (h) (100 μM, listed as (R)-7 [(R)-AS-1]), the “% Effect, 5-HT6 (h) (Agonist effect)” value was -0.26% and -0.26 (100 µM) %. For the same molecule, at human SV2A, the inhibition constant Ki was 275 µM and > 250 µM. For the same molecule, on mouse SV2A, the “Binding to mouse SV2A” value was “no binding observed”.
